Laboratory results: patent US7811797B2, “α-isomaltosylglucosaccharide-forming enzyme, process and uses of the same” (Kabushiki Kaisha Hayashibara Seibutsu Kagaku Kenkyujo, priority 2000, dated 2010)

What was measured:
[1] = Amino carbonyl reaction with polypeptone; format: physicochemical; settings: 10% (w/v) with 5% (w/v) polypeptone, 100° C., minus the control
Method: Four milliliters of the resulting solution were placed in a glass test tube, sealed, and heated at 100° C. for 30 to 90 min. After allowing to stand for cooling at ambient temperature, each of the resulting solutions was measured for coloration degree to examine on their amino carbonyl reactivity. In parallel, as a control, a solution with only polypeptone was provided and similarly treated as above. The coloration degree was evaluated based on the level of the absorbance, measured in a cell with 1-cm light pass at a wavelength of 480 nm, minus the control.

[2] = test system: internal content of rat cecum; test: Fermentation test by internal content of rat cecum; format: in vitro ADME
Method: The internal content of rat cecum was collected by anesthetizing a Wister male rat with ether, allowing the rat to die, collecting the internal content under anaerobic conditions, and suspending the resultant with 4-fold volumes of a 0.1 M aqueous solution of sodium bicarbonate. Cyclotetrasaccharide was added in an amount of about 7% by weight to the internal content of rat cecum, and the contents of cyclotetrasaccharide still remained just after and 12 hours after the addition of the internal content was quantified on gas chromatography. As a result, the contents of cyclotetrasaccharide of the former and latter were respectively 68.0 mg and 63.0 mg per one gram of the internal content of rat cecum.

[3] = test system: Lactobacillus acidophilus JCM 1132; test: Assimilation test, Lactobacillus acidophilus; format: cell-based; settings: PYF medium with 0.5% saccharide, 37° C., four days, anaerobic
[4] = Reducing power on the Somogyi-Nelson's method; format: physicochemical
[5] = test system: α-isomaltosylglucosaccharide-forming enzyme; test: Transfer-acceptor specificity, Enzyme of Strain C11; format: biochemical, Bacillus globisporus C11; settings: acceptor 1.6%, PINE-DEX #100 donor 4%, one unit/g donor, 30° C., pH 6.0, 24 hours
Amylopsin = target: T1, Amylopsin (Homo sapiens, UniProt P04746); test: Digestion test in vitro, amylopsin
T1 sequence (P04746 16-511): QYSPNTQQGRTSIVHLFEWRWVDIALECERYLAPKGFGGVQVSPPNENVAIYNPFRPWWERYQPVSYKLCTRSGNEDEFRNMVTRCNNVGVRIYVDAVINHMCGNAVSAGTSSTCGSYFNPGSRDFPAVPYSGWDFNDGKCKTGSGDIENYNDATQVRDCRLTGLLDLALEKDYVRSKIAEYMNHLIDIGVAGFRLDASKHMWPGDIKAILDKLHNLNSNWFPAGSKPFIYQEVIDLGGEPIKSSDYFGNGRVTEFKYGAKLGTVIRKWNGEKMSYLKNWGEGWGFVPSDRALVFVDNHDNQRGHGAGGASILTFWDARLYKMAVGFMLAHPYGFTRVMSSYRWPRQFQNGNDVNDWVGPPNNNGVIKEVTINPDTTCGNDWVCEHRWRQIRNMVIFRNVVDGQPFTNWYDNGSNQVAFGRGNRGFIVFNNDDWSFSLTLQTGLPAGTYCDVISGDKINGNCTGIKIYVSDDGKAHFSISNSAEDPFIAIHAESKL

Row | SMILES | Coloration degree (A480 nm) ([1]; heating time 0 min) | Coloration degree (A480 nm) ([1]; heating time 30 min) | Coloration degree (A480 nm) ([1]; heating time 60 min) | Coloration degree (A480 nm) ([1]; heating time 90 min) | content of cyclotetrasaccharide remained ([2]; 12 hours after the addition) | content of cyclotetrasaccharide remained ([2]; just after the addition, about 7% by weight added) | Assimilability [3] | reducing power [4] | Product of transferring reaction, Enzyme of Strain C11 [5] | Decomposition percentage (%) by digestive enzyme (Amylopsin) [%]
1 | OCC1OC2OCC3O[C@H](O[C@H]4C(O)C(CO)OC(OCC5O[C@H](O[C@@H](C1O)C2O)C(O)C(O)[C@@H]5O)C4O)C(O)C(O)[C@@H]3O (stereo partly drawn) [Cyclotetrasaccharide, cyclo{→6)-α-D-glucopyranosyl-(1→3)-α-D-glucopyranosyl-(1→6)-α-D-glucopyranosyl-(1→3)-α-D-glucopyransoyl-(1→}] | 0.00 | 0.00 | 0.00 | 0.00 | 63.0 mg per one gram of the internal content of rat cecum | 68.0 mg per one gram of the internal content of rat cecum | − (judged negative (−) when the post culture had a pH of 6.0 or higher) | below a detectable level | – | –
2 | OC[C@@H](O)[C@@H](O[C@H]1O[C@H](CO)[C@@H](O)[C@H](O)[C@H]1O)[C@H](O)[C@@H](O)CO [Maltitol, reference compound] | – | – | – | – | – | – | – | – | ++ (a saccharide-transferred product was detected in an amount over ten percent through transfer reaction to acceptor) | 0.0
